The results in this text go back to article PMC5638539, “A mannitol/sorbitol receptor stimulates dietary intake in Tribolium castaneum” (PLoS ONE, 2017).

Broadly, the EC50 is the concentration at which the effect is half-maximal.

For assay [1], the target named is T1, TcGr20 (gustatory receptor 20) (Tribolium castaneum, UniProt D2A5I4).
T1 construct: ORF of TcGr20 expressed in Xenopus oocytes
T1 sequence (D2A5I4 1-388): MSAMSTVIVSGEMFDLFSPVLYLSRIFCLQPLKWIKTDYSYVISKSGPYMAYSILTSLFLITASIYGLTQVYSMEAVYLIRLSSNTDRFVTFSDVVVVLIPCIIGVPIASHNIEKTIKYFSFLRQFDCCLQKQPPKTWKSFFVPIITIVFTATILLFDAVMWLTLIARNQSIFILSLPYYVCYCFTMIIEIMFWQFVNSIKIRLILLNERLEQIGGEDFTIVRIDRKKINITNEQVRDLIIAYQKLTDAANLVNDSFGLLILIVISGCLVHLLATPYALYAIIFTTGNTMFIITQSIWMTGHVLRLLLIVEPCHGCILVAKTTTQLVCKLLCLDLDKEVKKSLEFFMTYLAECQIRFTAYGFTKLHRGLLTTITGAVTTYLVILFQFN
Kind of assay: two-electrode voltage clamp in Xenopus oocytes expressing TcGr20, dose-response. It is filed as cell-based. In general terms: Two-electrode voltage clamp holds a large cell at a set potential and records current.

For assay [2], the target named is T1, TcGr20 (gustatory receptor 20). Put plainly: two-electrode voltage clamp in Xenopus oocytes expressing TcGr20, dose-response; water-injected control negative. It is filed as cell-based.

In assay [1], `OC[C@@H](O)[C@@H](O)[C@H](O)[C@@H](O)CO` [sorbitol] displayed a half-maximal effective concentration (EC50) of 90.6 ± 10.4 mM.
The compound `OC[C@@H](O)[C@@H](O)[C@H](O)[C@H](O)CO` [mannitol] yielded an EC50 in assay [2] of 72.6 ± 9.1 mM.
